{"source": "patent US12533348B2", "about": "“Ferroportin-inhibitors for the use in the treatment of transfusion-dependent beta-thalassemia (TDT)” (Vifor (International) AG, priority 2019, dated 2026)", "key": {"[1]": {"experiment": "Combination study: plasma concentrations of Fpn127 and DFX (LC-MS/MS)", "format": "in vivo, mouse", "description": "On day 23 (study end) 1 hour after dosing blood was collected by retro-orbital bleeding from pre-terminally anesthetized mice into BD Microtainer Tubes (Cat. 365967 and 365975) for determination of serum iron, transferrin, erythropoietin and compound exposure. Anesthetized animals were subsequently euthanized by cervical dislocation.\n[formula] Serum EPO was measured using a mouse-specific DuoSet ELISA according to the manufacturer's instructions (R&D Systems, Cat. DY959). Plasma concentrations of Fpn127 and DFX were measured at GVK Biosciences, Hyderabad, IN. Flow Cytometric Analysis of Intracellular ROS, Mitochondria, and PS Exposure\nPlasma was collected 1 hour after dosing of DFX on day 23 for determination of compound concentration by LC-MS/MS. Plasma exposure of DFX was similar in animals dosed with DFX alone or in combination with Fpn127 (FIG. 11, Table 12). […] As expected, plasma levels of Fpn127 were low as plasma was sampled approximately 20 h after the last dose of Fpn127."}, "[2]": {"system": "Hbb^th3/+ mouse model of β-thalassemia intermedia", "experiment": "Combination study: complete blood counts (ProCyte Dx)", "format": "in vivo", "settings": "for HCT / Leukocytes / Lymphocytes / MCH / MCHC / MCV / Neutrophils / RBC / RDW / RET / Ret-He: th3/+ mice, DFX 30 mg/kg QD, Fpn127 120 mg/kg QD p.o., whole blood day 23, all animals, mean", "description": "Complete blood counts were performed on fresh EDTA-blood on an automated blood cell analyzer (ProCyte Dx®, IDEXX Laboratories) in-house."}, "[3]": {"system": "Hbb^th3/+ mouse model of β-thalassemia intermedia", "experiment": "Combination study: serum iron (MULTIGENT Iron assay), transferrin ELISA and calculated TSAT", "format": "in vivo", "settings": "for TSAT: calculated from Tf and serum iron, day 23, 1 h after last DFX dose, approx. 20 h after last Fpn127 dose; for TSAT / serum iron: th3/+ mice, all animals, mean; for serum iron: day 23, 1 h after last DFX dose (30 mg/kg), approx. 20 h after last Fpn127 dose (120 mg/kg)", "description": "[…] Anesthetized animals were subsequently euthanized by cervical dislocation.\nSerum levels of iron were determined in triplicates using MULTIGENT Iron assay (Abbott Diagnostics, Cat. 6K95). Serum Transferrin (TO was measured in duplicates using a mouse-specific ELISA according to the manufacturer's instructions (Abcam, Cat. ab157724). Transferrin saturation (TSAT) was calculated using the formula: […]"}, "[4]": {"system": "Hbb^th3/+ mouse model of β-thalassemia intermedia", "settings": "in vivo", "quoted_text": "The aim of this study was to test whether the concurrent use of the iron chelator DFX administered once daily (QD) alone at 30 mg/kg or in combination with Fpn127 administered QD at 120 mg/kg for 3 weeks is causing any therapeutic interactions in a mouse model of β-thalassemia intermedia (Hbb^th3/+; B6; 129P—b1tm1Unc-b2tm1Unc/J, Jackson Laboratories, Stock Number: 002683).\nAnimals were euthanized 1 h after the last dose of DFX on study day 23 (dosing day 17).\nOn the final study day (day 23), spleen, liver, and kidneys were collected and snap frozen in liquid nitrogen for further analysis, as outlined below. Wet weight of spleen, liver, and kidneys were recorded.\nContent of total Fe was determined in pieces of spleens, livers, and kidneys by ICP-OES in the Analytical Development group of Vifor (International) Ltd., St. Gallen.\nIndividual wet weights of organs were recorded. Individual values of total Fe were measured in livers, spleens, and kidneys. Individual values of total Fe content and concentration were calculated. Mean±SD of total Fe concentration and content in livers, spleens, and kidneys was calculated for each group."}, "Hbb^th3/+ mice [5]": {"system": "Hbb^th3/+ mice", "experiment": "ROS levels in mature RBCs of Hbb^th3/+ mice, oral dosing 60 mg/kg twice daily, no BT", "format": "in vivo, mouse"}, "[6]": {"experiment": "Half-life of orally administered Fpn127 in rodents", "settings": "in vivo, po"}, "Hbb^th3/+ mice [7]": {"system": "Hbb^th3/+ mice", "experiment": "NTBI in plasma after blood transfusion (BT) in Hbb^th3/+ mice (Fe-NTA colorimetric assay)", "format": "in vivo, mouse", "settings": "single oral dose 120 mg/kg 30 min before BT, 3 h post BT (FIG. 13)", "description": "In order to establish the kinetics of NTBI generation in Hbb th3/+ mice (B6.129P2-Hbb-b1tm1Unc Hbb-b2tm1Unc/J, #002683) following blood transfusion (BT) pilot experiments were performed. The wild-type (We) littermates of Hbbth3/+ were used as blood donors for transfusions. Peripheral blood was collected from terminally anesthetized WT mice via retro-orbital route from 3-5 female mice and seven parts of blood were mixed with one part of 14% citrate-phosphate-dextrose adenine and stored at 4° C. until the transfusion (24 h or 15 days). The donor blood was pre-warmed to 37° C. prior to the transfusion. […]\nNTBI was measured in murine plasma samples by a Fe-Nitrilotriacetate (NTA)-based assay, adapted from a protocol published by Gosriwatana I et al. 1999 (Quantification of non-transferrin-bound iron in the presence of unsaturated transferrin. Gosriwatana I, Loreal O. Lu S, Brissot P, Porter J, Hider R C. Quantification of non-transferrin-bound iron in the presence of unsaturated transferrin. Anal Biochem. 1999 Sep. 10; 273(2):212-20. First, a solution of 800 mM Nitrilotriacetate acid (NTA) trisodium (Sigma, 72565) and a solution of 800 mM NTA disodium (Sigma, N0128) were prepared and then mixed together to obtain a solution at pH 7.0. […] After 30 minutes of incubation at room temperature, samples were measured in a plate reader (Biotec) at 537 nm."}}, "note": "Where “and” joins values, the source holds several entries; their conditions need not be identical. Equal values may be shown once. Entries after “also recorded” stand apart in the source; their conditions may differ."}
{"compound": "O=C(O)c1ccc(-n2nc(-c3ccccc3O)nc2-c2ccccc2O)cc1", "note": "[DFX, deferasirox, reference compound]", "values": [{"measurement": "plasma exposure of DFX, alone vs in combination with Fpn127", "setting": "[1]; 1 hour after dosing of DFX on day 23 (FIG. 11)", "value": "similar"}, {"measurement": "concentration at 1 h", "setting": "[1]; both sexes, Hbb^th3/+ (B6; 129P—b1tm1Unc-b2tm1Unc/J), mouse, oral, 30 mg/kg, th3/+ mice, all animals, plasma collected 1 hour after dosing of DFX on day 23, LC-MS/MS, read-out: Plasma exposure of DFX at the end of the study (mean)", "value": 15400, "unit": "ng/mL"}, {"measurement": "neutrophil counts", "setting": "[2]; Hbb^th3/+ mice, day 23, potential inflammatory response", "value": "significantly increased"}, {"measurement": "HCT", "setting": "[2]", "value": 27.4, "unit": "%"}, {"measurement": "Leukocytes", "setting": "[2]", "value": "8.9 10E3/μL"}, {"measurement": "Lymphocytes", "setting": "[2]", "value": "7.4 10E3/μL"}, {"measurement": "MCH", "setting": "[2]", "value": 10.4, "unit": "pg"}, {"measurement": "MCHC", "setting": "[2]", "value": 25.4, "unit": "g/dL"}, {"measurement": "MCV", "setting": "[2]", "value": 41.1, "unit": "fL"}, {"measurement": "Neutrophils", "setting": "[2]", "value": "1.2 10E3/μL"}, {"measurement": "RBC", "setting": "[2]", "value": "7.7 10E6/μL"}, {"measurement": "RDW", "setting": "[2]", "value": 47.0, "unit": "%"}, {"measurement": "RET", "setting": "[2]", "value": "1760 10E3/μL"}, {"measurement": "Ret-He", "setting": "[2]", "value": 12.8, "unit": "pg"}, {"measurement": "TSAT", "setting": "[3]", "value": 27.5, "unit": "%"}, {"measurement": "serum iron", "setting": "[3]", "value": "30.8 ± 5.9 µM and 30.8 µM"}, {"measurement": "effect on kidney weight vs vehicle-treated Hbbth3/+ mice", "setting": "[4]", "value": "no effect on kidney weight"}, {"measurement": "effect on liver weight vs vehicle-treated Hbbth3/+ mice", "setting": "[4]", "value": "no effect on liver weight"}]}
{"compound": "O=C(NCc1ncccc1F)c1coc(CCNCCc2nc3ccccc3[nH]2)n1", "note": "[Fpn127]", "values": [{"measurement": "plasma levels of Fpn127", "setting": "[1]; approximately 20 h after the last dose of Fpn127", "value": "low"}, {"measurement": "plasma exposure of Fpn127, in presence vs absence of DFX", "setting": "[1]; day 23 (FIG. 11)", "value": "comparable"}, {"measurement": "Plasma exposure of Fpn127 at the end of the study (mean)", "setting": "[1]; th3/+ mice, all animals, plasma collected on day 23, approximately 20 h after the last dose of Fpn127, LC-MS/MS", "value": 68, "unit": "ng/mL"}, {"measurement": "leukocyte, neutrophil and lymphocyte counts", "setting": "[2]; Hbb^th3/+ mice, day 23 (FIG. 8), for DFX alone: total leukocyte and lymphocyte counts", "value": "reduced to levels similar to WT"}, {"measurement": "RBC indices (RBC counts, hematocrit, RDW, reticulocyte counts)", "setting": "[2]; Hbbth3/+ mice, day 23 (FIG. 7)", "value": "significantly improved"}, {"measurement": "HCT", "setting": "[2]", "value": 31.2, "unit": "%"}, {"measurement": "Leukocytes", "setting": "[2]", "value": "5.7 10E3/μL"}, {"measurement": "Lymphocytes", "setting": "[2]", "value": "5.0 10E3/μL"}, {"measurement": "MCH", "setting": "[2]", "value": 9.9, "unit": "pg"}, {"measurement": "MCHC", "setting": "[2]", "value": 27.4, "unit": "g/dL"}, {"measurement": "MCV", "setting": "[2]", "value": 36.4, "unit": "fL"}, {"measurement": "Neutrophils", "setting": "[2]", "value": "0.3 10E3/μL"}, {"measurement": "RBC", "setting": "[2]", "value": "9.9 10E6/μL"}, {"measurement": "RDW", "setting": "[2]", "value": 39.1, "unit": "%"}, {"measurement": "RET", "setting": "[2]", "value": "1332 10E3/μL"}, {"measurement": "Ret-He", "setting": "[2]", "value": 11.8, "unit": "pg"}, {"measurement": "effect on TSAT", "setting": "[3]; Hbbth3/+ mice, day 23 (FIG. 10)", "value": "significantly decreased"}, {"measurement": "TSAT", "setting": "[3]", "value": 17.7, "unit": "%"}, {"measurement": "effect on serum iron vs vehicle treated th3/+ and WT animals", "setting": "[3]; day 23, last Fpn127 dose given 20 h before (FIG. 10)", "value": "significantly reduced"}, {"measurement": "serum iron", "setting": "[3]", "value": "19.9 ± 3.3 µM and 19.9 µM"}, {"measurement": "ROS levels in RBCs", "setting": "Hbb^th3/+ mice [5]; 15 days of oral dosing 60 mg/kg twice daily (FIG. 2B), 60 mg/kg", "value": "decreased ROS levels; also recorded: further decreased"}, {"measurement": "ROS levels in RBCs", "setting": "Hbb^th3/+ mice [5]; day 8 of oral dosing 60 mg/kg twice daily (FIG. 2A)", "value": "decreased ROS levels"}, {"measurement": "half-life", "setting": "[6]", "value": "~2", "unit": "h"}, {"measurement": "effect on kidney weight vs vehicle-treated Hbbth3/+ mice", "setting": "[4]", "value": "no effect on kidney weight"}, {"measurement": "effect on liver weight vs vehicle-treated Hbbth3/+ mice", "setting": "[4]", "value": "no effect on liver weight"}, {"measurement": "NTBI in plasma after blood transfusion", "setting": "Hbb^th3/+ mice [7]", "value": "prevents release; also recorded: prevented the increase of NTBI"}]}
